In publication PMC5379193, “Pathogen recognition of a novel C-type lectin from Marsupenaeus japonicus reveals the divergent sugar-binding specificity of QAP motif” (Scientific Reports, 2017):
Converted amounts (≈) assume the structure as drawn.

Molecular target: T1, MjGCTL (rMjGCTL) (Penaeus japonicus, UniProt A0A1L7MZX5)
T1 construct: gene GCTL; secreted from Drosophila S2 cells (pMT/BiP/V5-His C), V5 and His tags kept, Ni-NTA purified; ~50 kDa, glycosylated; ORF 311 aa, 35 kDa predicted; LDLa domain plus CRD (QAP motif)
T1 sequence (A0A1L7MZX5 17-311): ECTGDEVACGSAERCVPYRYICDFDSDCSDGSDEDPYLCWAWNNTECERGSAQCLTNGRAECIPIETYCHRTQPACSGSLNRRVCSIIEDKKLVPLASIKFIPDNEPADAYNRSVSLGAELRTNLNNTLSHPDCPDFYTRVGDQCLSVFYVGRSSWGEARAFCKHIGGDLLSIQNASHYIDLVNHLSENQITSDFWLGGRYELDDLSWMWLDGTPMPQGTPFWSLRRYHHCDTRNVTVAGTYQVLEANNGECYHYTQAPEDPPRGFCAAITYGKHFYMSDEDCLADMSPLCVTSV
Assay: inhibition of bacterial agglutination by purified rMjGCTL
Type: biochemical
Settings: V. parahaemolyticus named for Man/Gal/Glc; TBS with 10 mM CaCl2, pH 7, 25 °C; 1 h preincubation; Ca2+-dependent
Excerpt: inhibition of bacterial agglutination by purified rMjGCTL on MjGCTL (rMjGCTL)

| Structure (SMILES) | Minimum inhibitory concentration |
| --- | --- |
| OC[C@H]1OC(O)[C@H](O)[C@@H](O)[C@@H]1O (stereo partly drawn) [D-glucose] | 100 mM (≈ 18 mg/mL) |
| C[C@@H]1OC(O)[C@@H](O)[C@H](O)[C@@H]1O (stereo partly drawn) [Fucose] | 250 mM (≈ 41 mg/mL) |
| OC[C@H]1O[C@@H](O[C@H]2[C@H](O)[C@@H](O)C(O)O[C@@H]2CO)[C@H](O)[C@@H](O)[C@H]1O (stereo partly drawn) [Lactose] | 250 mM (≈ 85.6 mg/mL) |
| OC[C@H]1O[C@H](O[C@H]2[C@H](O)[C@@H](O)C(O)O[C@@H]2CO)[C@H](O)[C@@H](O)[C@@H]1O (stereo partly drawn) [Maltose] | 125 mM (≈ 42.8 mg/mL) |
| CC(=O)N[C@H]1C(O)O[C@H](CO)[C@@H](O)[C@@H]1O (stereo partly drawn) [N-Acetyl-D-glucosamine] | 250 mM (≈ 55.3 mg/mL) |
| OC1OC[C@@H](O)[C@H](O)[C@H]1O (stereo partly drawn) [Xylose] | 62.5 mM (≈ 9.38 mg/mL) |
